Data on one compound can be found in patent US20250127774A1, “COMPOUNDS FOR LABELLING NUCLEIC ACID AND USES THEREOF” (THE ROYAL INSTITUTION FOR THE ADVANCEMENT OF …, priority 2022, published 2025).

SMILES strings stand for the structures. “And” between values parts separate entries of the source, which are not always exact repeats. Identical values can stand only once.

In data set [1] the test system is vinyl-modified RNA in Hela cells. Briefly: Metabolic RNA labeling. The data set is classed as cell-based. The conditions noted are these: VU 2.5 mM 24 h, PINK 100 μM 5 h; diminished by RNase A/T1. On the procedure: The labeling approach was extended to vinyl-modified RNA. Hela cells were seeded in ibidi® 8-well plates (5.000 cells per well) and allowed to settle overnight. Cells were then incubated with 5-vinyl uridine (VU, 2.5 mM) for 24 h. After 19 h, PINK (100 μM final concentration) was added for 5 h. […]. Cells were fixed and optionally treated with RNase A/T1 mix (100 μg/mL RNase A; 250 U/mL RNase T1). Total cellular DNA was counterstained with Hoechst 33342 (5 μg/mL). Images were acquired on confocal microscopes under 20× (a) or 63× (b) magnification (FIG. 13).
Metabolic RNA Labeling. Hela cells were seeded in μ-slide 8-well chambers (ibidi®), cat-#: 80826) at a density of 2.0×10^4 cells per mL (5.000 cells per well) and allowed to settle overnight. Cells were aspirated and 5-vinyl uridine (VU, 2.5 mM, 0.1% DMSO) was added. Cells were incubated for 19 h, at which point PINK (100 μM; 0.2% DMSO final concentrations) was added. After additional 5 h, cells were aspirated, washed with PBS, and fixed with 3.7% PFA in PBS for 15 min. Cells were quenched with 50 mM glycine/NH4Cl for 5 min, washed with PBS, and permeabilized twice with 0.2% Triton X-100 in PBS for 5 min each followed by washing with PBS, twice 100 mM NaOAc buffer (pH 5.2), 10% DMSO in PBS, and PBS for 5 min each. […]

Data set [2] in a line: Kinetic measurements with the VdU nucleoside (non-templated IEDDA reaction). The conditions noted are these: 50 mM aq. NaOAc buffer pH 5.2 (27% DMSO). On the procedure: A) Fluorescence increase versus time upon mixing PINK with VdU. […] B) Normalized increase of fluorescence. C) Plot of the observed rates k′ versus PINK concentrations. The slope yields the rate constant k.
PINK (4) undergoes a highly fluorogenic and regioselective IEDDA reaction with VdU (5) to give “PINK-VdU-ox” (6) as a single isomer in a 76% isolated yield after 7d at 60° C. (Scheme 1). The slow rate of this non-templated reaction (Kapp=0.01 M^−1 s^−1, FIG. 5) is due to the combination of an unstrained terminal alkene and unactivated tetrazine.^[49] Over the course of the reaction, a ˜100-fold increase in fluorescence was observed (FIG. 3, c). […]
Kinetic Measurements with the VdU Nucleoside. Second order reaction rates between PINK and VdU were determined under pseudo first order conditions with a large excess of the dienophile over the tetrazine. […] Measurements were performed on a SpectraMax M5 plate reader (Molecular Devices, Sunnyvale, CA, USA) in 384 well plates (Greiner bio-one, cat-#871906; 50 μL per well; covered with 20 μL spectroscopic grade silicon oil to avoid evaporation). […] Samples were measured over 18 h in intervals of 10 min. […] Reactions rates were calculated using pseudo first order approximations fitting the measurements to mono exponential equations. The reported reaction rate is an arithmetic mean determined from three independent experiments.

The test system of data set [3] is calf thymus (CT) DNA. Briefly: Binding affinity measurements of PINK with CT-DNA (absorbance changes at 575 nm). Particulars: 10 μM PINK, CT-DNA 0-160 μM base pairs, 50 mM NaOAc buffer pH 5.2 (0.2% DMSO); 1 molecule per 5 base pairs; read-out: apparent dissociation constant (KD). As to the method:
B) Fluorescence changes (excitation: 500 nm, emission: 590 nm; 515 nm cutoff filter) of 20 μM PINK in the presence of 1 mM b.p. CT-DNA (50 eq) in PBS pH 7.4 (10% DMSO) followed by addition of 5-norbornene-2-methanol (2 mM, 100 eq).
To evaluate the ability of PINK (4) to undergo reversible intercalation into duplex DNA, the absorbance of PINK was monitored upon addition of calf-thymus (CT) DNA. Consistent with intercalation,^[42-44] a bathochromic shift in PINK absorbance was observed upon addition of CT DNA (FIG. 3, a). To further evaluate the binding mode, viscosity measurements of concentrated DNA solutions were conducted in presence of increasing amounts of PINK. […] By taking the maximum binding stoichiometry of PINK into account (1 molecule per 5 base pairs; see FIG. 1b), an apparent dissociation constant KD can be calculated according to KD=[(unbound PINK)*(unbound DNA binding sites)]/(PINK-bound binding sites).
Binding Affinity Measurements of PINK with CT-DNA. Binding of PINK to CT-DNA was assessed by monitoring changes of absorbance collecting measurements on a SpectraMax M5 plate reader (Molecular Devices, Sunnyvale, CA, USA) in 1 cm path-length quartz cuvettes. […] Binding of PINK to CT-DNA and determination of an apparent binding constant (KD) was calculated by plotting changes of absorbance at 575 nm.

Regarding `Cc1nnc(-c2ccc3cc4ccc(N(C)C)cc4nc3c2)nn1` [PINK], the “fluorescent signal of live-cell metabolic RNA labeling” value in data set [1] is “strong fluorescent signal”. Moreover, in data set [2] (100 μM PINK, 1-5 mM VdU), the “rate of non-templated reaction (Kapp)” value is 0.01 M⁻¹ s⁻¹. Further, in data set [2] (18 h), the “stability of PINK under control conditions (0 mM VdU)” value is “full stability”. Also, the Kd in data set [3] was 5 µM and 5.1 µM.
